Experiment [1] has as its target T1, thrombin (Homo sapiens (Human), UniProt P00734). The experiment is described as follows: Measurement of the thrombin inhibition in buffer. It is filed as biochemical. The settings on record: human thrombin 0.06 nmol/l, Tris buffer pH 7.4, 22° C.; substrate Boc-Asp(OBzl)-Pro-Arg-AMC; in some cases means. On the procedure: To determine the thrombin inhibition of the substances listed above, a biochemical test system is constructed in which the conversion of a thrombin substrate is used for determining the enzymatic activity of human thrombin. Here, thrombin cleaves aminomethylcoumarin, which is measured fluorescently, from the peptic substrate. The determinations are carried out in microtitre plates.
Substances to be tested are dissolved in various concentrations in dimethyl sulphoxide and incubated for 15 min with human thrombin (0.06 nmol/l dissolved in 50 mmol/l of Tris buffer [C,C,C-tris(hydroxymethyl)aminomethane], 100 mmol/l of sodium chloride, 0.1% BSA [bovine serum albumin], pH 7.4) at 22° C. The substrate (5 μmol/l Boc-Asp(OBzl)-Pro-Arg-AMC from Bachem) is then added. After 30 min of incubation, the sample is excited at a wavelength of 360 nm and the emission is measured at 460 nm. The measured emissions of the test batches with test substance are compared to the control batches without test substance (only dimethyl sulphoxide instead of test substance in dimethyl sulphoxide) and the IC50 values are calculated from the concentration/activity relationships.

The target in experiment [2] is T1, thrombin. Put plainly: Thrombin-inhibitory activity in plasma samples (ecarin-activated). It is filed as biochemical. As to conditions: citrate plasma, prothrombinase activated by ecarin, fluorogenic thrombin substrate; in some cases means; read-out: IC50 [nM] thrombin inhibition in plasma samples. On the procedure:
To determine the inhibition of thrombin in plasma samples, plasma […] is activated by ecarin. Thrombin activity and/or its inhibition by potential inhibitors is/are then measured fluorenscently by addition of a substrate.
The substances to be tested are dissolved in various concentrations in dimethyl sulphoxide and diluted with water. In white 96-well flat-bottomed plates, 20 μl of substance dilution are mixed with 20 μl of ecarin solution (ecarin reagent, from Sigma E-0504, final concentration 20 mU per reaction) in Ca buffer (200 mM Hepes+560 mM sodium chloride+10 mM calcium chloride+0.4% PEG) or with 20 μl of Ca buffer (as unstimulated control). Furthermore, 20 μl of fluorogenic thrombin substrate (from Bachem I-1120, final concentration 50 μmol/l) and 20 μl of citrate plasma (from Octapharma) are added, and the mixture is homogenized well. The plate is measured in a SpectraFluorplus Reader using a 360 nm excitation filter and a 465 nm emission filter every minute over 20 minutes.

Experiment [3] concerns plasma (prothrombin time). The experiment is described as follows: Anticoagulatory activity: prothrombin time (PT) in plasma. The settings on record: 37° C., 3 minutes incubation, plasma species not given, in some cases means, read-out: IC50 [μM] (concentration of test substance which effects a doubling of the prothrombin time). As to the method: The anticoagulatory activity of the test substances is determined in vitro in human plasma, rabbit plasma and rat plasma. To this end, blood is drawn off in a mixing ratio of sodium citrate/blood of 1:9 using a 0.11 molar sodium citrate solution as receiver. Immediately after the blood has been drawn off, it is mixed thoroughly and centrifuged at about 4000 g for 15 minutes. The supernatant is pipetted off.
The prothrombin time (PT, synonyms: thromboplastin time, quick test) is determined in the presence of varying concentrations of test substance or the corresponding solvent using a commercial test kit (Neoplastin® from Boehringer Mannheim or Hemoliance® RecombiPlastin from Instrumentation Laboratory). The test compounds are incubated with the plasma at 37° C. for 3 minutes. Coagulation is then started by addition of thromboplastin, and the time when coagulation occurs is determined. The concentration of test substance which effects a doubling of the prothrombin time is determined Representative activity data from this test are given in Table 3 below (in some cases as means of individual determinations): […]

The subject of experiment [4] is New Zealand rabbits. Put plainly: Rabbit venous reperfusion and bleeding model (combi model rabbit). It is filed as in vivo. The settings on record: for Increase in reperfusion (blood flow/time area): on top of tissue plasminogen activator; for Significance of increase in reperfusion: p > 0.05. As to the method: Male New Zealand rabbits having a weight of 2.8-3.4 kg are anaesthetized using an intramuscular ketamine/Rompun bole injection. The animal is then shaved at the places needed for the surgery. A continuous infusion of anaesthetic (ketamine/Rompun) is administered via the left auricular vein using an indwelling catheter. Left and right femoral vein and right femoral artery are catheterized with a polyethylene tube (PESO). The jugular vein is then carefully exposed such that the vessel is stressed and damaged as little as possible and no more fat is present at the vessel. Using a suitable apparatus for measuring flow (Powerlab, Transonic TS420 incl. flow probe head), the flow in the jugular vein is recorded (Lab Chart Software). Prior to the start of the experiment, twice 1.4 ml of citrated blood are removed from the rabbit via the femoral artery, and the basal bleeding time at the rim of the ear is determined. Once there has been a constant flow from the jugular vein for 10 min (complete regeneration of the vessel after preparation), a 2 cm section of the vein is pinched off using small vessel clamps. In a Petri dish, the citrated blood removed earlier (300 μl) is mixed with calcium chloride (0.25 M, 90 μl) and thrombin (25 U/ml, 60 μl). 180 μl of the blood/calcium chloride/thrombin mixture are quickly drawn into a 1 ml syringe and, via a 27G cannula, injected into the pinched-off segment of the vessel. The injection site is pinched off with a pair of tweezers for one minute so that no blood can escape. Two minutes after injection of the thrombus, the test substance is administered as bole and infusion via the left femoral vein catheter. 14 minutes after the thrombus injection, tissue plasminogen activator is administered as bole and infusion (Actilyse®, 20 μg/kg bole & 150 μg/kg/h infusion) at the right femoral vein. 15 minutes after thrombus injection, the stasis is opened and the flow probe head is attached. Blood flow in the vessel is recorded for 120 minutes, and the vessel is kept moist with warm 0.9% aqueous sodium chloride solution during this time. After 105 minutes of reperfusion, the ear bleeding time is determined again. At the end of the experiment, after 120 minutes of reperfusion, 1.4 ml of citrated blood are removed, the animal is sacrificed painlessly by a bole injection of 1.5 ml of T61 and the weight of the thrombus in the jugular vein is determined. The blood removed before and after the experiment is used to obtain plasma and to determine the ex vivo coagulation time.
The area obtainable with tissue plasminogen activator alone is subtracted from the area achieved using the respective substance or dosage. The resulting area is a measure of the improvement of reperfusion by the test substance (Table 4).

The mark [5] stands for this setting: bole 0.33 mg/kg, continuous infusion 0.43 mg/kg/h.
Setting [6] is: bole 0.08 mg/kg, continuous infusion 0.09 mg/kg/h.

Each structure is given as a SMILES string.

Here are results for eight compounds from patent US9493472B2, “Substituted benzoxazoles” (BAYER PHARMA AKTIENGESELLSCHAFT, priority 2013, dated 2016).

On to `COc1cc(C(=O)N2CC(C)(CC(C)O)OC[C@H]2C)cc2nc(NC(CF)c3cccc(Cl)c3)oc12` (stereo partly drawn) [Example 12, (2-{[1-(3-Chlorophenyl)-2-fluoroethyl]amino}-7-methoxy-1,3-benzoxazol-5-yl)[(5R)-2-(2-hydroxypropyl)-2,5-dimethylmorpholin-4-yl]methanone], for which the results for the IC50 in experiment [1], in experiment [2] and in experiment [3] were 0.1 nM, 14.7 nM and 1.5 µM, respectively.

`COc1cc(C(=O)N2CC(C)(CCO)OC[C@H]2C)cc2nc(NC(CF)c3cccc(Cl)c3)oc12` (single isomer, unassigned) [Example 11]: the IC50 in experiment [1] turned out to be 0.01 nM; in experiment [2], 5.7 nM; in experiment [3], 1 µM.

On to `COc1cc(C(=O)N2CC(C)OC[C@H]2C)cc2nc(NC(CF)c3cccc(Cl)c3)oc12` (single isomer, unassigned) [Example 7], for which the IC50 worked out at 5.3 nM in experiment [1], 11.4 nM in experiment [2] and 1.9 µM in experiment [3].

For `COc1cc(C(=O)N2CC(C)OC[C@]23C[C@H](O)C3)cc2nc(NC(CF)c3cccc(Cl)c3)oc12` (stereo partly drawn) [Example 21, (2-{[1-(3-Chlorophenyl)-2-fluoroethyl]amino}-7-methoxy-1,3-benzoxazol-5-yl)(cis-2-hydroxy-7-methyl-8-oxa-5-azaspiro[3.5]non-5-yl)methanone], the values for the IC50 in experiment [1], in experiment [2] and in experiment [3] were 1.4 nM, 6.2 nM and 1.3 µM, respectively.

In the case of `COc1cc(C(=O)N2CC(C)OC[C@@H]2CCO)cc2nc(NC(CF)c3cccc(Cl)c3)oc12` (single isomer, unassigned) [Example 15], the IC50 in experiment [3] came to 1.1 µM. In experiment [4] (setting [5]), the “Increase in reperfusion (blood flow/time area)” value came out at 12.2% and the “Significance of increase in reperfusion” value was “insignificant effect”.

As to `O=C(NC[C@H]1CN(c2ccc(N3CCOCC3=O)cc2)C(=O)O1)c1ccc(Cl)s1` [rivaroxaban, 5-chloro-N-({(5S)-2-oxo-3-[4-(3-oxo-4-morpholinyl)-phenyl]-1,3-oxazolidin-5-yl}methyl)-2-thiophenecarboxamide, reference compound], in experiment [4] (setting [6]), the “Increase in reperfusion (blood flow/time area)” value amounted to 13.0% and the “Significance of increase in reperfusion” value was “insignificant effect”.

`COc1cc(C(=O)N2CC3(CC3)NC(=O)C2C)cc2nc(NC(CF)c3cccc(Cl)c3)oc12` (single isomer, unassigned) [Example 33, 7-[(2-{[1-(3-Chlorophenyl)-2-fluoroethyl]amino}-7-methoxy-1,3-benzoxazol-5-yl)carbonyl]-6-methyl-4,7-diazaspiro[2.5]octan-5-one]: the IC50 in experiment [1] stood at 0.38 nM; in experiment [2] it was 8.4 nM; in experiment [3], 0.8 µM.

In the case of `CCO[C@@H]1CC(CO)N(C(=O)c2cc(OC)c3oc(NC(CF)c4cccc(Cl)c4)nc3c2)C1` (single isomer, unassigned) [Example 27], the figures for the IC50 in experiment [1], in experiment [2] and in experiment [3] were 0.16 nM, 4.6 nM and 1 µM, respectively.
